Test system: SEM cells
Assay: cell viability relative to DMSO control; higher = less cytotoxic
Conditions: 48 h
Procedure, shortened: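 NOMO1 or SEM (500 cells/well) or P12-Ichikawa (1000 cells/well) leukemia cells were adapted for at least four passages in each medium. They were seeded in 1536-well plates (5 μl) and pin-dosed with library compounds in DMSO over an 11-point threefold series, 47 μM to 0.79 nM. CellTiter-Glo One luminescence was read after 48 h at 37°C. Viability is the per-plate percentage relative to DMSO wells, with cell-free wells as background.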

[1] = HPLM + 10% dialyzed FBS, 0.000781 µM
[2] = HPLM + 10% dialyzed FBS, 0.00234 µM
[3] = HPLM + 10% dialyzed FBS, 0.00702 µM
[4] = HPLM + 10% dialyzed FBS, 0.0211 µM
[5] = HPLM + 10% dialyzed FBS, 0.0632 µM
[6] = HPLM + 10% dialyzed FBS, 0.19 µM
[7] = HPLM + 10% dialyzed FBS, 0.569 µM
[8] = HPLM + 10% dialyzed FBS, 1.71 µM
[9] = HPLM + 10% dialyzed FBS, 5.12 µM
[10] = HPLM + 10% dialyzed FBS, 15.4 µM
[11] = HPLM + 10% dialyzed FBS, 46.1 µM
[12] = RPMI 5 mM glucose + 10% FBS, 0.000781 µM
[13] = RPMI 5 mM glucose + 10% FBS, 0.00234 µM
[14] = RPMI 5 mM glucose + 10% FBS, 0.00702 µM
[15] = RPMI 5 mM glucose + 10% FBS, 0.0211 µM
[16] = RPMI 5 mM glucose + 10% FBS, 0.0632 µM
[17] = RPMI 5 mM glucose + 10% FBS, 0.19 µM
[18] = RPMI 5 mM glucose + 10% FBS, 0.569 µM
[19] = RPMI 5 mM glucose + 10% FBS, 1.71 µM
[20] = RPMI 5 mM glucose + 10% FBS, 5.12 µM
[21] = RPMI 5 mM glucose + 10% FBS, 15.4 µM
[22] = RPMI 5 mM glucose + 10% FBS, 46.1 µM
[23] = RPMI 5 mM glucose + 10% dialyzed FBS, 0.000781 µM
[24] = RPMI 5 mM glucose + 10% dialyzed FBS, 0.00234 µM
[25] = RPMI 5 mM glucose + 10% dialyzed FBS, 0.00702 µM
[26] = RPMI 5 mM glucose + 10% dialyzed FBS, 0.0211 µM
[27] = RPMI 5 mM glucose + 10% dialyzed FBS, 0.0632 µM
[28] = RPMI 5 mM glucose + 10% dialyzed FBS, 0.19 µM
[29] = RPMI 5 mM glucose + 10% dialyzed FBS, 0.569 µM
[30] = RPMI 5 mM glucose + 10% dialyzed FBS, 1.71 µM
[31] = RPMI 5 mM glucose + 10% dialyzed FBS, 5.12 µM
[32] = RPMI 5 mM glucose + 10% dialyzed FBS, 15.4 µM
[33] = RPMI 5 mM glucose + 10% dialyzed FBS, 46.1 µM

SMILES | cell viability [1] [%] | cell viability [2] [%] | cell viability [3] [%] | cell viability [4] [%] | cell viability [5] [%] | cell viability [6] [%] | cell viability [7] [%] | cell viability [8] [%] | cell viability [9] [%] | cell viability [10] [%] | cell viability [11] [%] | cell viability [12] [%] | cell viability [13] [%] | cell viability [14] [%] | cell viability [15] [%] | cell viability [16] [%] | cell viability [17] [%] | cell viability [18] [%] | cell viability [19] [%] | cell viability [20] [%] | cell viability [21] [%] | cell viability [22] [%] | cell viability [23] [%] | cell viability [24] [%] | cell viability [25] [%] | cell viability [26] [%] | cell viability [27] [%] | cell viability [28] [%] | cell viability [29] [%] | cell viability [30] [%] | cell viability [31] [%] | cell viability [32] [%] | cell viability [33] [%]
C[C@H]1C[C@H]2[C@@H]3CCC4=CC(=O)C=C[C@]4(C)[C@H]3C(=O)C[C@]2(C)[C@@]1(O)C(=O)CO | 77 | 81.5 | 77.8 | 88.9 | 70.6 | 99.8 | 96.5 | 92.7 | 88.7 | 81.9 | 9.17 | 82.3 | 81.3 | 90.3 | 78.8 | 72.5 | 87 | 92.5 | 91.7 | 71.3 | 58.5 | 7.21 | 93.2 | 85.2 | 83.4 | 91.1 | 77.5 | 101 | 93.6 | 97.6 | 85.4 | 74.4 | 7.99
O=[S+]([O-])(/N=C/c1c(O)ccc2ccccc12)c1cccs1 | 97 | 114 | 101 | 109 | 110 | 110 | 112 | 66.8 | 104 | 88.3 | 81.9 | 113 | 116 | 108 | 106 | 113 | 120 | 102 | 74.3 | 93.3 | 94.5 | 68.5 | 98.7 | 136 | 109 | 112 | 131 | 118 | 115 | 79.5 | 98.2 | 91.1 | 98.7
CN(C)/[N+]([O-])=N/Oc1cc(ON[N+](=O)N2CCN(C(=O)c3cc(Cc4n[nH]c(=O)c5ccccc45)ccc3F)CC2)c([N+](=O)[O-])cc1[N+](=O)[O-] | 94 | 97.2 | 103 | 97.7 | 100 | 58.3 | 101 | 116 | 109 | 110 | 105 | 99 | 101 | 93.1 | 93.5 | 100 | 55.9 | 98.2 | 109 | 111 | 113 | 103 | 89.9 | 79.2 | 112 | 103 | 109 | 40.1 | 137 | 122 | 106 | 100 | 91.8
O=C([O-])[C@H](CC(=O)N1C[C@H]2CCCC[C@H]2C1)Cc1ccccc1 | 79.8 | 91.7 | 88.2 | 72.7 | 107 | 109 | 103 | 106 | 119 | 125 | 121 | 93.8 | 110 | 105 | 87.7 | 102 | 108 | 106 | 112 | 117 | 128 | 119 | 85.1 | 103 | 107 | 65.5 | 95.7 | 117 | 115 | 105 | 129 | 137 | 140
CN(c1nccc(=O)[nH]1)C1CCN(c2nc3ccccc3n2Cc2ccc(F)cc2)CC1 | 105 | 107 | 115 | 113 | 112 | 113 | 108 | 110 | 115 | 91 | 123 | 78.4 | 94.8 | 95 | 80 | 84.8 | 88.9 | 95.3 | 98.1 | 91.9 | 79.7 | 87.7 | 94.7 | 103 | 102 | 111 | 106 | 113 | 109 | 106 | 101 | 104 | 99.6
C/C(=C\c1csc(C)n1)[C@@H]1C[C@@H]2O[C@@H]2CCC[C@H](C)[C@H](O)[C@@H](C)C(=O)C(C)(C)[C@@H](O)CC(=O)O1 | 26.5 | 21.4 | 22.1 | 22.7 | 19.9 | 20.3 | 23.7 | 21.5 | 19.1 | 20.8 | 20.7 | 14.8 | 18.4 | 16.2 | 16 | 16.4 | 16.4 | 16.2 | 13.4 | 16.1 | 16.3 | 13.4 | 32.1 | 17.1 | 19.3 | 16.8 | 15.6 | 17.7 | 19.6 | 15.2 | 18.7 | 21.8 | 19.2
C[N+](C)(C)CC(=O)O.[Cl-] | 56.8 | 83.2 | 80.5 | 73.7 | 79.7 | 85.5 | 88.3 | 26.3 | 93.1 | 93.4 | 89.1 | 76.8 | 80.8 | 73 | 77.4 | 81.8 | 89.2 | 96 | 16.6 | 86.8 | 90.2 | 93.4 | 81.5 | 95 | 90.9 | 87.8 | 81.7 | 89 | 100 | 21 | 91.8 | 88.8 | 74.2
C/C(=C\c1csc(C)n1)[C@@H]1C[C@@H]2O[C@]2(C)CCC[C@H](C)[C@H](O)[C@@H](C)C(=O)C(C)(C)[C@@H](O)CC(=O)O1 | 20.1 | 19.1 | 23 | 36.1 | 21 | 22 | 19.7 | 19.5 | 18.2 | 20.3 | 19.9 | 11.4 | 15.3 | 17.3 | 19.1 | 16.8 | 17.3 | 15.8 | 14.1 | 13.1 | 14.9 | 16.9 | 20.7 | 18.4 | 14 | 50.3 | 20.6 | 16.9 | 14.3 | 16.2 | 16.6 | 16.3 | 15.6
COC1=CC(=CC=C1)C2=CC=C(NC(=O)/C3=C(/CCC3)C(O)=O)C(=C2)F | 103 | 109 | 116 | 108 | 122 | 108 | 119 | 107 | 104 | 104 | 76.6 | 92.5 | 108 | 112 | 116 | 127 | 120 | 121 | 118 | 107 | 111 | 42.8 | 95.6 | 115 | 109 | 113 | 103 | 109 | 105 | 111 | 111 | 78.2 | 30.9
Cn1c(=O)c2[nH]cnc2n(C)c1=O | 102 | 112 | 107 | 109 | 108 | 110 | 98.6 | 117 | 105 | 110 | 102 | 104 | 107 | 110 | 98.1 | 98.2 | 103 | 99.7 | 94.8 | 110 | 99 | 97.2 | 98.8 | 126 | 102 | 115 | 124 | 113 | 106 | 114 | 105 | 124 | 104
O=C(NCCCNc1nc(Nc2cccc(NC(=O)N3CCCC3)c2)ncc1I)c1cccs1 | 55.6 | 91.1 | 102 | 75.8 | 46.5 | 60.8 | 50.4 | 27.2 | 32.9 | 76.7 | 70.6 | 74 | 124 | 124 | 111 | 68.7 | 85.1 | 33.1 | 13.4 | 37.5 | 77.7 | 68.9 | 46.5 | 96.9 | 87.4 | 78.9 | 36.8 | 64.9 | 42.6 | 23.9 | 28.4 | 79.6 | 62.6
CC1(C)Cc2c(sc(NC(=S)NC(=O)c3ccccc3)c2C(=O)O)CO1 | 74.1 | 89.5 | 91.9 | 89.1 | 96.7 | 98.3 | 97.6 | 108 | 101 | 88.3 | 101 | 94 | 109 | 108 | 93.1 | 112 | 112 | 110 | 113 | 101 | 105 | 106 | 65.2 | 84 | 85.4 | 87.8 | 96.6 | 88.3 | 95.4 | 91.7 | 89.6 | 102 | 88.5
C[C@@H](NCc1cc2ccccc2[nH]1)c1cccc2ccccc12 | 80 | 80.5 | 86.2 | 83.3 | 77.7 | 107 | 89.7 | 95.9 | 89.2 | 89.7 | 41.9 | 84.1 | 86.6 | 87.2 | 90.3 | 74.5 | 92.2 | 97.5 | 84.4 | 92.9 | 85.9 | 39.5 | 90 | 84.1 | 86 | 82.9 | 71.7 | 101 | 93.3 | 93 | 93.1 | 85.6 | 57.9
C=C[C@H]1CN2CCC1C[C@@H]2[C@@H](O)c1ccnc2ccccc12 (stereo not given in full) | 95.4 | 95.7 | 103 | 112 | 98.5 | 96.1 | 91 | 93.6 | 85.2 | 89.1 | 72.1 | 92 | 105 | 93.2 | 106 | 108 | 104 | 100 | 92.9 | 73.5 | 78.1 | 51.1 | 106 | 100 | 90 | 106 | 102 | 103 | 110 | 94.1 | 87.3 | 86.6 | 64.1
CN1/C=C(\N=C(NC2=CC=C(C=C2)C(=O)N3CCOCC3)/C1=O)/C4=C(C)C(=CC=C4)NC(=O)C5=CC=C(C=C5)C(C)(C)C | 111 | 97.2 | 105 | 48.6 | 106 | 116 | 97.5 | 110 | 106 | 89.5 | 92.2 | 110 | 102 | 106 | 46.8 | 101 | 86.6 | 110 | 92.8 | 104 | 83.3 | 66 | 106 | 108 | 105 | 50.7 | 120 | 107 | 100 | 111 | 92.2 | 98.5 | 68.6

From the supplement of paper PMC11451515
